Measured values from article PMC7463714, “Design and Synthesis of Novel Hybrid 8-Hydroxy Quinoline-Indole Derivatives as Inhibitors of Aβ Self-Aggregation and Metal Chelation-Induced Aβ Aggregation” (Molecules, 2020).
“Also recorded” adds a separate entry of the source.

Experiments:
Aβ1–42 = target: T1, Aβ1–42 (Homo sapiens, UniProt P05067); experiment: Self-induced Aβ1–42 aggregation, thioflavin T (ThT) fluorescence assay; type: biochemical
T1 construct: Aβ1–42 (Adooq Bioscience, CA, USA); purchased Adooq Bioscience
T1 sequence (P05067 672-713 limits assumed): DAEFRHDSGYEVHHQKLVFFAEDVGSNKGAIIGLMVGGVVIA
Procedure: The novel hybrid 8-hydroxyquinoline-indole derivatives, 7a–7e, 12a, 12b, and the (8-hydroxyquinolin-2-yl)methyl-4-(1H-indole-2-carbonyl)piperazine-1-carboxylate analogs 18a–18h were evaluated for inhibitory activity against self-induced Aβ1–42 aggregation at five different concentrations (0.3, 1.0, 3, 9 and 27 µM) with 25 µM Aβ1–42, utilizing a thioflavin T (ThT) fluorescence assay with clioquinol, 1 as a positive control (Figure 3). In the absence of inhibitor, the self-induced Aβ1–42 aggregation ThT fluorescence was recorded as 115 arbitrary units (a.u.). The self-induced Aβ1–42 aggregation results for all the above synthetic analogs from the ThT fluorescence assay are shown in Table 1. […] The thioflavin T (ThT)-fluorescence assay was used to measure the inhibition of Aβ aggregation. Aβ1–42 (Adooq Bioscience, CA, USA) was pretreated with 1 mL of hexafluoroisopropanol (HFIP) to afford a stock solution, which was aliquoted into small samples. The solvent was evaporated at room temperature, and samples were stored at −80 °C. For Aβ1–42 aggregation inhibition experiments, phosphate buffer (pH 7.4) was added to the Aβ stock solution to afford a 50 µM concentration before use. A mixture of the Aβ1–42 peptide (10 µL, 25 µM final concentration) with or without the test compound (10 µL; 0.3, 1.0, 3, 9, and 27 µM) was incubated at 37 °C for 48 h. Blanks using phosphate buffer (pH 7.4) instead of Aβ, with or without test compound, were also assessed. Then 50 mM glycine-NaOH buffer (pH 8.0) containing ThT (5 µM) was added to 20 µL of the sample to afford a final volume of 200 µL. The fluorescence intensities were recorded (excitation, 450 nm; emission, 485 nm). The fluorescence intensities were background corrected to the no enzyme control and 100% of intensity reflected no inhibition of aggregation. To obtain the normalized amyloid aggregation inhibition relative to the control group, the amyloid aggregation/cell values were further divided by the total amyloid fluorescence of the control group. Using GraphPad Prism, the amyloid aggregation values (relative to control group) were entered along the corresponding concentrations for the triplicates and then a log transformation was obtained. Using the dose–response simulation module in GraphPad Prism, nonlinear regression fit (curve) was then generated for each small molecule with various concentrations used. Curves were then compared to determine if they were statistically different, by performing the best-fit values of selected unshared parameters between data sets and extra sum-of-squares F test, allowing for selection of the simpler model unless the P value was less than 0.05. The logEC50 output parameter was then selected to obtain the EC50 for each of the dose–response curves for the small molecules.

[1] = Metal-chelation study by UV-vis spectroscopy and Job's method; type: physicochemical; settings: compound 50 µM, HEPES buffer pH 7.4, 30 min, shift from 252 nm
Procedure: Furthermore, the stoichiometry of formation of metal complexes 18f-Cu^2+ and 18f-Zn^2+ was also determined by using Job’s method (Figure 6). The […] shown in Figure 6A,B at 0.6 and 0.5 imply a stoichiometry of 1.5:1 for 18f-Cu^2+ and 1:1 for 18f-Zn^2+.
The chelating studies were performed with a UV–vis spectrophotometer. The absorption spectra of test compound (50 μM, final concentration) alone or in the presence of CuSO4, FeSO4, or ZnCl2 (50 μM, final concentration) in buffer (20 mM HEPES, 150 mM NaCl, pH 7.4) were incubated for 30 min and then recorded at room temperature, respectively. For the stoichiometry of the test compound–Cu^2+ complex or the test compound–Zn^2+ complex, a fixed amount of test compound (50 μM) was mixed with increasing amounts of copper ion or Zn ion (0–100 μM), and the UV–vis difference spectra were analyzed to determine the ratio of ligand/metal ion in the complex.

HEK-tau cells = experiment: Protein aggregation in HEK-tau cells (ThT staining); type: cell-based, Human; settings: 1 µM, 48 h, 37 °C; compared to clioquinol (1)
Procedure: In our study, we have shown that restoring metal homeostasis by treatment with hybrid 8-hydroxyquinoline-indole analogs reduces tau- and amyloid-mediated protein aggregation, and their associated neurotoxicity. Analogs 7a–7d, 18c–18f, and 18h were evaluated for their ability to reduce protein aggregation in HEK-tau cells. HEK-tau cells were exposed to the above Aβ1–42 aggregation inhibitors and parent drug clioquinol (1) at 1 µM for 48 h at 37 °C. Cells were assessed for amyloid deposits by staining with 0.1% w/v thioflavin T, counterstaining nuclei with DAPI, and mean ThT fluorescence signal per nucleus was calculated over multiple fields. All the analogs reduced fluorescence intensity (indicative of protein aggregation) by 26–62% (P < 0.001 by 2-tailed t-test).
(§1) Human Embryonic Kidney cells that overexpress tau protein (HEK-tau) cells or SY5Y neuroblastoma cells that express a familial-AD mutant of amyloid precursor protein (SY5Y-APPSw cells) were each seeded in 96-well plates at 8000 cells per well. After 24 h, cells were supplemented with test compound at 1 µM after diluting with medium. Vehicle only control was also included for each experiment. The cells were cultured for an additional 48 h at 37 °C. Both the cell lines were able to reach approximately 80% confluency in 48 h. Cells were assessed for amyloid deposits by staining with 0.1% w/v ThT, counterstaining nuclei with DAPI, and calculating mean ThT fluorescence signal per nucleus over multiple fields.

SY5Y-APPSw cells = experiment: Protein aggregation in SY5Y-APPSw cells (ThT staining); type: cell-based; settings: 1 µM, 48 h, 37 °C; compared to clioquinol (1)
Procedure: In another study compounds 7a–7d, 18c–18f, and 18h were also evaluated for their ability to reduce protein aggregation in SY5Y-APPSw cells. SY5Y-APPSw cells were exposed to the above protein aggregation inhibitors and parent compound 1 at 1 µM for 48 h at 37 °C. Cells were assessed for amyloid deposits by staining with 0.1% w/v ThT, counterstaining nuclei with DAPI, and mean ThT fluorescence signal per nucleus calculated over multiple fields. All the analogs reduced fluorescence intensity (indicative of protein aggregation) by 22–67% (P < 0.001 by 2-tailed t-test). […] Thioflavin-T fluorescence assays for in vitro amyloid aggregation and cell culture models of amyloid aggregation overlap but are not identical. This is due to the fact that thioflavin in cell-culture stains not just amyloid aggregates but also other amyloid-like fibrillar structures. Another important difference is that in vitro aggregation is assessed after 24 h, whereas aggregation in cell culture is assessed after 48 h.
as §1

EC50 (Aβ1–42; 25 µM Aβ1–42, compound 0.3-27 µM, 37 °C, 48 h, ThT fluorescence, read-out: EC50 against self-induced Aβ1–42 aggregation): 1.08 µM
improvement in inhibitory potency over clioquinol (1), Aβ1–42 self-aggregation (Aβ1–42; relative to 1): 10 fold
maximum absorption wavelength in the presence of Cu^2+ ([1]; CuSO4 50 µM): 274 nm
maximum absorption wavelength in the presence of Fe^2+ ([1]; FeSO4 50 µM): 255 nm
maximum absorption wavelength in the presence of Zn^2+ ([1]; ZnCl2 50 µM): 269 nm
Compound: COc1ccc2[nH]c(C(=O)N3CCN(C(=O)OCc4ccc5c(Cl)cc(Cl)c(O)c5n4)CC3)cc2c1 [Compound 18f, (5,7-Dichloro-8-hydroxyquinolin-2-yl)methyl-4-(5-methoxy-1H-indole-2-carbonyl)piperazine-1-carboxylate]
protein aggregation inhibition in HEK-tau cells, result in words (HEK-tau cells): most effective; also recorded: effective in reducing protein aggregation
protein aggregation inhibition in SY5Y-APPSw cells, result in words (SY5Y-APPSw cells): effective in reducing protein aggregation
